In PubChem BioAssay (NCI):
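Exposure lasted 48 hours, with cells grown in 96-well plates and compounds tested at five concentrations. GI50 marks 50% less growth. The concentration for full growth arrest is given as TGI.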

Experiments:
Assay in all cases: DTP human tumour cell line panel, 48 h
786-0 renal = test system: 786-0 renal
KM12 colon = test system: KM12 colon
M14 melanoma = test system: M14 melanoma
OVCAR-4 ovarian = test system: OVCAR-4 ovarian
OVCAR-5 ovarian = test system: OVCAR-5 ovarian
SF-268 CNS = test system: SF-268 CNS
SW-620 colon = test system: SW-620 colon
TK-10 renal = test system: TK-10 renal
UACC-257 melanoma = test system: UACC-257 melanoma
CAKI-1 renal = test system: CAKI-1 renal

| SMILES | GI50 (786-0 renal) [µM] | TGI (786-0 renal) [µM] | GI50 (KM12 colon) [µM] | TGI (KM12 colon) [µM] | GI50 (M14 melanoma) [µM] | TGI (M14 melanoma) [µM] | GI50 (OVCAR-4 ovarian) [µM] | TGI (OVCAR-4 ovarian) [µM] | GI50 (OVCAR-5 ovarian) [µM] | TGI (OVCAR-5 ovarian) [µM] | GI50 (SF-268 CNS) [µM] | TGI (SF-268 CNS) [µM] | GI50 (SW-620 colon) [µM] | TGI (SW-620 colon) [µM] | GI50 (TK-10 renal) [µM] | TGI (TK-10 renal) [µM] | GI50 (UACC-257 melanoma) [µM] | TGI (UACC-257 melanoma) [µM] | TGI (CAKI-1 renal) [µM] | GI50 (CAKI-1 renal) [µM] |
| --- | --- | --- | --- | --- | --- | --- | --- | --- | --- | --- | --- | --- | --- | --- | --- | --- | --- | --- | --- | --- |
| CCCCC[C@H]1C/C=C2/C(=O)C(Cl)=C[C@@H]2C/C=C\CCCC(=O)O[C@@H](CCCCC)C/C=C2/C(=O)C(Cl)=C[C@@H]2C/C=C\CCCC(=O)O1 | 0.28 | 0.622 | 0.388 | 0.92 | 0.39 | 1.07 | 0.461 | 1.79 | 0.689 | 2.94 | 0.479 | 1.68 | 0.512 | 1.77 | 0.508 | 1.6 | 0.366 | 0.932 | – | – |
| CC(=O)NC(CCCN(Cc1ccccc1)C(=O)N(CCCl)N=O)C(=O)NCc1ccccc1 (stereo unspecified) | – | > 58.7 | – | > 100 | – | > 100 | – | > 100 | – | > 100 | – | > 100 | – | > 100 | – | > 100 | – | > 100 | – | – |
| Cc1c2ccncc2c(C)c2c1[nH]c1ccc(OC(C)(C)C)cc12 | – | 2.96 | – | – | – | 14.9 | – | 4.21 | – | 54.9 | – | 25.5 | – | 5.1 | – | 18.1 | – | 4.01 | 3.4 | – |
| Cc1cn2c(/C=N/N/C(N)=N\N)c(-c3ccc(Cl)c([N+](=O)[O-])c3)nc2s1 | 0.859 | 1.73 | 1.02 | 2.29 | – | – | – | – | 1.03 | 2.1 | 1.03 | 2.37 | – | – | 5.82 | 30.7 | 1.41 | 4.87 | 17.6 | 8.49 |
| CC(C)=CC(=O)CC(=O)C(=O)Nc1ccc(Cl)c(Cl)c1 | – | > 100 | – | > 100 | – | > 100 | – | > 100 | – | > 100 | – | > 100 | – | > 100 | – | > 100 | – | > 100 | – | – |
| O=C(Nc1ccc2c(c1)oc(=O)c1ccccc12)C(Cl)Cl | – | > 100 | – | > 100 | – | > 100 | – | – | – | > 100 | – | > 100 | – | > 100 | – | – | – | > 100 | > 100 | – |
| C=C(C)[C@@H]1CC[C@@]2(C)[C@H]1[C@H]1CCC3[C@@]4(C)CC[C@H](O)C(C)(C)[C@@H]4CC[C@@]3(C)[C@]1(C)C[C@@H]2O (stereo partly specified) | – | > 100 | – | > 100 | – | > 100 | – | – | – | > 100 | – | > 100 | – | > 100 | – | > 100 | – | > 100 | > 100 | – |
| Nc1nc(Nc2cccc(F)c2)nc2ccccc12 | 17.4 | 33.6 | 18.1 | 42.4 | – | – | 22.9 | > 100 | 17.4 | 43.5 | 28.5 | > 100 | 17.1 | 36.6 | 39.3 | 90.3 | 17.4 | 34.1 | 44.9 | 16 |
| FC(F)(F)c1ccc2nc(Nc3ccc(Cl)c(Cl)c3)c(-c3ccccc3)nc2c1 | – | > 100 | – | – | – | – | – | – | – | > 100 | – | > 100 | – | > 100 | – | > 100 | – | > 100 | – | – |
| CCOC(=O)/C(C#N)=C1\N[C@H](C(=O)OCC)CO1 | – | > 100 | – | > 100 | – | > 100 | – | > 100 | – | > 100 | – | > 100 | – | > 100 | – | – | – | > 100 | > 100 | – |
| CC1CC2(CC[C@@H]1O)OCCO2 (stereo partly specified) | – | > 100 | – | > 100 | – | > 100 | – | > 100 | – | – | – | – | – | > 100 | – | > 100 | – | > 100 | > 100 | – |
| CC(=O)C1=C([O-])C(C)OC1=O.CC(=O)C1=C([O-])C(C)OC1=O.[NH-]C1CCCC[C@H]1[NH-].[Pt+4] (stereo unspecified) | 9.67 | > 100 | > 100 | > 100 | 85.3 | > 100 | 88.9 | > 100 | – | – | > 100 | > 100 | 8.69 | > 100 | > 100 | > 100 | > 100 | > 100 | > 100 | 35.9 |
| CC(CCCOC(c1ccccc1)(c1ccccc1)c1ccccc1)OC(=O)Nc1cc([N+](=O)[O-])cc([N+](=O)[O-])c1 (stereo unspecified) | – | 94.9 | – | > 100 | – | > 100 | – | > 100 | – | – | – | > 100 | – | > 100 | – | – | – | 85.1 | 72.1 | – |
| CCC1CN2CCc3cc(OC)c(OC)cc3C2CC1CC1c2cc(OC)c(OC)cc2CCN1C(=O)CNC(=O)OC(C)(C)C (stereo unspecified) | – | 21.2 | – | 11.4 | – | – | – | 7.98 | – | 77.3 | – | 70.3 | – | 29.1 | – | 85.5 | – | 60 | 65.1 | – |
| COC(=O)[C@]1(C)CCC[C@@]2(C)C1CCC1=C[C@@]3(C(C)C)CC[C@]12OO3 (stereo partly specified) | – | 40.9 | – | 66.5 | – | 68.3 | – | > 100 | – | 84.9 | – | 66.6 | – | > 100 | – | > 100 | – | > 100 | – | – |
| CC1=CC(=O)C(C(C)=Nc2ccccc2Cl)C(=O)O1 (stereo unspecified) | > 100 | > 100 | > 100 | > 100 | > 100 | > 100 | – | – | > 100 | > 100 | > 100 | > 100 | > 100 | > 100 | > 100 | > 100 | > 100 | > 100 | > 100 | > 100 |
| CC(=O)c1cccc(NCn2nnc3ccccc32)c1 | – | > 100 | – | > 100 | – | > 100 | – | > 100 | – | – | – | > 100 | – | > 100 | – | > 100 | – | > 100 | – | – |
| CS(=O)(=O)Nc1cc(-c2ccc3ncnc(Nc4ccc5c(cnn5Cc5ccc(F)cc5)c4)c3c2)cnc1Cl | 2.22 | 19.9 | 2.93 | 9.72 | 2.33 | 17 | 3.09 | 44 | 1.53 | 8.84 | 0.819 | 4.51 | 2.5 | 12.8 | – | – | 2.17 | 17.9 | – | – |
| CC(C)[C@@H](COC(C)(C)C)N=CN1CCc2c([nH]c3ccccc23)C1 | – | > 100 | – | > 100 | – | > 100 | – | > 100 | – | > 100 | – | > 100 | – | > 100 | – | > 100 | – | – | – | – |
